Assay results: patent US20240245694A1, “Tricyclic Compounds and their Uses” (Novartis AG, priority 2022, published 2024)

Tests used:
[1] = target: WRN helicase (core helicase motif aa N517-P1238) (Homo sapiens (Human), UniProt Q14191); assay: WRN ATPase assay (ADP-Glo), DNA dependent ATP hydrolysis; format: biochemical; conditions: 3 hours pre-incubation, 300 micromolar ATP, FLAP26 ssDNA; geometric means of at least 2 determinations
In short: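 Uses the WRN core helicase (aa N517-P1238) with single-strand 45-mer FLAP26 DNA in Tris pH 7.5, MgCl2, NaCl, BSA and pluronic buffer. Compound was pre-incubated 3 h with enzyme and ATP; reaction then run with 10 nM WRN, 0.2 nM FLAP26 and 300 µM ATP for 30 min at room temperature. ADP quantified by ADP-Glo luminescence; IC50 from duplicate 4-parameter fits, geometric mean of ≥2 runs.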

[2] = system: SW48 colorectal xenografts; assay: Efficacy against subcutaneous SW48 colorectal xenografts; format: in vivo, Crl:NU(NCr)-Foxn1nu nude mice; conditions: for % T/C / maximal regression: amorphous sodium salt; for anti-tumor effect / relapse while on treatment: p.o. qd; for anti-tumor effect: all dose levels of the study; for relapse while on treatment: time of relapse dose dependent
Description: (§1) Experiments were performed in female Crl:NU(NCr)-Foxn1^nu-homozygous nude mice (Charles River). Animals were housed under Optimized Hygienic Conditions in Allentown XJ cages (IVC, max. 6 mice per cage) with food and water at libitum and a 12 h:12 h light:dark cycle. Animals were allowed to acclimatize for at least 1 week before being enrolled in the experimental design. The study described here was performed according to license 1975 approved by the Basel Cantonal Veterinary Office.
Tumors were established by subcutaneous inoculation of human colorectal cancer SW48 cells (5×10^6 cells/animal in 100 μL in HBSS). SW48 human colorectal cancer cells were obtained from ATCC. The cells were cultured in RPMI-1640 medium (BioConcept Ltd., #1-41F01-1) supplemented with 10% FCS (Bio Concept #2-01F30-1), 2 mM L-glutamine (BioConcept Ltd., #5-10K50-H), 1 mM sodium pyruvate (Bio Concept #5-60F00-H) and 10 mM HEPES (Bio Concept #5-31F00-H) at 37° C. in an atmosphere of 5% CO2 in air. To establish SW48 xenografts cells were harvested and re-suspended in HBSS (Sigma, #H6648) before injecting subcutaneously 100 μL containing 5 million cells in the right flank of animals which were anaesthetized with isoflurane. Tumor size, in mm^3, was calculated following the formula: (L×W2×π/6); where W=width and L=length of the tumor. As a measure of efficacy the % T/C value is calculated at the end of the experiment according to:
Tumor regression was calculated according to: […]
Where Δtumor volumes represent the mean tumor volume on the evaluation day minus the mean tumor volume at the start of the experiment.
(§2) Amorphous sodium salt of test compound (corrected by salt factor) was dissolved in an aqueous 20% w/v solution of 2-hydroxypropyl-beta-cyclodextrin (HPBCD). A range of concentrations was prepared by serial dilution starting from the solution at highest concentration for the highest dose in the study.
(§3) Treatment was initiated about two weeks post tumor cell inoculation, when the xenografts had reached a mean volume of approximately 200 mm^3. The tumor bearing animals were randomized based on tumor volumes into experimental groups with 6 animals per group and treatment was initiated. Compounds were dosed orally (p.o.) once per day (qd) at 1, 3, 5 or 10 mg/kg (Example 18A) and at 0.1, 0.3, 1, 3 mg/kg (Example 21A). In addition, a control group treated once per day with vehicle (20% 2-hydroxypropyl-β-cyclodextrin) was included in each study. Tumor volumes and body weights were measured two times per week until the study termination.

[3] = Tolerability (body weight) in the SW48 xenograft study; format: in vivo, Crl:NU(NCr)-Foxn1nu nude mice
Description: as §1, §2, §3

Sequence of WRN helicase (core helicase motif aa N517-P1238) (Q14191 517-1238): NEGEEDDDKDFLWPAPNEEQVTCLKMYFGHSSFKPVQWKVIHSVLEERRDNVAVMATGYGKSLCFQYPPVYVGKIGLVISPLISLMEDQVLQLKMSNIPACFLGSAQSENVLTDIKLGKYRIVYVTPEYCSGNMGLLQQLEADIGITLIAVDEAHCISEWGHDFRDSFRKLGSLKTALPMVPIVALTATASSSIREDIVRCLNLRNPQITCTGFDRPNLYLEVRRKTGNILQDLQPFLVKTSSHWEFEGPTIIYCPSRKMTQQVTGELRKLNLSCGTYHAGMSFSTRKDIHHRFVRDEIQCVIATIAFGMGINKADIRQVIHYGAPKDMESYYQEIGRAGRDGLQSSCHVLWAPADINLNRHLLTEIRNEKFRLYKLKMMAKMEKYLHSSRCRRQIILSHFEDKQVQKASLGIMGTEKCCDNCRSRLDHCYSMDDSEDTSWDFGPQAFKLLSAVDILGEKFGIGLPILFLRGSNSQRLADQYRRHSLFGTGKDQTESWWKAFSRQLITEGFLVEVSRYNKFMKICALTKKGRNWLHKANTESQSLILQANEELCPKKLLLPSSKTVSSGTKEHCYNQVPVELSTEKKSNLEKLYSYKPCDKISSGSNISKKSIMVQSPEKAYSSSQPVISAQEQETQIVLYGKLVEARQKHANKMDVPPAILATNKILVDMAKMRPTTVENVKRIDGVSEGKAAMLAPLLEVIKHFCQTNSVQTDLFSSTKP

SMILES | IC50 [1] [nM] | % T/C ([2]; 1 mg/kg p.o. qd, day 32 of the study (fourteenth day of treatment)) [%] | maximal regression ([2]; 3 mg/kg p.o. qd, day 49 of the study (thirty first day of treatment)) [%] | maximal regression ([2]; 5 mg/kg p.o. qd, day 49 (thirty first day of treatment)) [%] | maximal regression ([2]; 10 mg/kg p.o. qd, day 63 (forty fifth day of treatment)) [%] | anti-tumor effect [2] | relapse while on treatment [2] | body weight gain, of the body weight at start ([3]; 1, 3, 5 or 10 mg/kg p.o. qd, after the initial body weight loss) | initial body weight loss among individual animals ([3]; 1, 3, 5 or 10 mg/kg p.o. qd, first ten days of treatment) [%] | % T/C ([2]; 0.1 mg/kg p.o. qd, day 25 throughout 29th day of the study (tenth to fourteenth day of treatment)) [%] | % T/C ([2]; 0.3 mg/kg p.o. qd, day 29 of the study (fourteenth day of treatment), initial stasis followed by regrowth) [%] | maximal regression ([2]; 1 mg/kg p.o. qd, day 52 of the study (thirty seventh day of treatment)) [%] | maximal regression ([2]; 3 mg/kg p.o. qd, day 85 (seventieth day of the treatment)) [%] | tolerability ([3]; 0.1, 0.3, 1, 3 mg/kg p.o. qd, throughout the study) | body weight loss among individual animals on individual occasions ([3]; 0.1, 0.3, 1, 3 mg/kg p.o. qd, not dose-dependent) [%]
Cc1ncnc(C(=O)N2CCN(c3c4n(c5nc(C6=CCOCC6)nn5c3=O)[C@@H](C(=O)Nc3ccc(C(F)(F)F)cc3Cl)C[C@H]4C)C[C@H]2C)c1O [Example 18A, (7R,9R)—N-(2-chloro-4-(trifluoromethyl)phenyl)-2-(3,6-dihydro-2H-pyran-4-yl)-6-((R)-4-(5-hydroxy-6-methylpyrimidine-4-carbonyl)-3-methylpiperazin-1-yl)-7-methyl-5-oxo-5,7,8,9-tetrahydropyrrolo[1,2-c][1,2,4]triazolo[1,5-a]pyrimidine-9-carboxamide] | 50 | 22 | 71 | 83 | 91 | Dose dependent anti-tumor effect was observed | Relapse was observed for all treatment groups | up to 18% | ≤ 14 | – | – | – | – | – | –
Cc1ncnc(C(=O)N2CCN(c3c4n(c5nc(C6=CCOCC6)nn5c3=O)[C@@H](C(=O)Nc3ccc(C(F)(F)F)cc3Cl)C[C@H]4C)[C@H]3CC[C@@H]32)c1O [Example 21A, (7R,9R)—N-(2-chloro-4-(trifluoromethyl)phenyl)-2-(3,6-dihydro-2H-pyran-4-yl)-6-((1S,6S)-5-(5-hydroxy-6-methylpyrimidine-4-carbonyl)-2,5-diazabicyclo[4.2.0]octan-2-yl)-7-methyl-5-oxo-5,7,8,9-tetrahydropyrrolo[1,2-c][1,2,4]triazolo[1,5-a]pyrimidine-9-carboxamide] | 30 | – | – | – | – | Dose dependent anti-tumor effect was observed | no relapse was observed in three animals treated at 1 mg/kg and in entire group treated at 3 mg/kg | – | – | 50 | 0 | 75 | 99 | well tolerated | ≤ 15
